“And” between values parts separate entries of the source, which are not always exact repeats. Identical values can stand only once. Marks after values point to notes of the source that are not given here.
Experiments:
[1] = tested on: Nitric Oxide Synthase (NOS) system; assay: Residual nitrite in pre-rigor pork semimembranosus muscle immersed in L-arginine (first study); type: biochemical
Experimental: Pre-rigor pork Semimembranosus muscle samples were collected from four pre-rigor pork carcasses (n=4) harvested at the Rosenthal Meat Science and Technology Center at Texas A&M University at six separate times over a four day period (N=24). Muscle samples were treated with five concentrations of L-arginine, using water as the control treatment. Samples were either subjected to heat treatment (water bath increasing to 62° C. for 60 min) or left raw/fresh (uncooked). All treated muscle samples were analyzed for residual nitrite, and cooked samples were analyzed for nitrosylhemochromagen levels to determine curing efficiency.
Solutions were prepared according to Wu to stabilize the muscle samples for enclosed reactions within the 50 mL conical tubes. […] The NaCl was used to stabilize any reaction and the NaE was used to accelerate any cure reaction that could occur. The L-arginine was prepared separately so as to be administered in specific concentration once the five grams of meat was added to the reaction tubes by creating dilutions of millimolar concentrations at 0 mM, 2 mM, 4 mM, 8 mM, 16 mM, and 32 mM.
The procedures for determining the following sample reactions followed the procedures outlined by Wu 24 5 g muscle samples were individually placed into 50 mL conical tubes.
Residual nitrite was determined using the modified AOAC Official Method 973.31 (Nitrite Analysis in Cured Meats Procedure) and was verified by Wu with sample (plasma or serum) preparation for amino acid analysis by HPLC and determination of nitrite (UV/VIS Spectrophotometric Method). This procedure was used to determine any residual nitrite found in samples. All samples were tested three weeks after being held in a −30° C. freezer then thawed in a 0° C. cooler.
Procedure: • 1. Weigh 5 g (±0.01) of finely comminuted and thoroughly mixed sample into a 100 ml beaker. • 2. Add approximately 40 ml distilled water and heat to 80° C. Use a glass rod to break up all lumps and mix thoroughly. • 3. Transfer the heated solution to a 500 ml volumetric flask. Quantitatively wash the beaker and rod with successive portions of the hot distilled water, adding all washings to the flask (approximately 300 ml). • 4. Transfer the flask to a steam bath (˜100° C.) and shake occasionally for 2 hour. After cooling to room temperature, bring the volume to 500 ml with distilled water and remix. Filter through two Whatman No. 2 filter papers into flask and mix solution thoroughly (discard the residue). Then transfer 25 ml of the filtrate into a 50 ml volumetric flask then add 2.5 ml sulfanilamide reagent, mix thoroughly. • 5. After setting for 5 min, add 2.5 ml NED reagent, mix. Dilute to volume with distilled water, mix and set for another 15 min to let the color develop. • 6. Transfer a portion of the solution to the cuvette and read absorbance at 540 nm against a blank of 45 ml distilled water+2.5 ml sulfanilamide reagent+2.5 ml NED reagent.
• 1. Pipette 0.5 mL of plasma (or serum) to a 12×75 mm polypropylene tube. Place the tube in ice. • 2. Add 0.5 mL of […] to the tube (the tube remains in ice). • 3. Mix the tube well (using a vortex). • 4. After 2 min, add 0.25 mL of 2 M K2CO3 to the tube (the tube remains in ice). • 5.

[2] = tested on: Nitric Oxide Synthase (NOS) system; assay: NO-heme, total heme, nitrosylation in plastic casing test tube ground pork loin sausages (Example 10); settings: for Nitrosylation / NO-Heme / Total Heme: cooked; for NO-Heme / Total Heme: ppm acid hematin
Experimental: The desired cured color could not initially be generated in a variety of processed meat products in a pilot plant setting. […] Pork loins (N=2) procured from a local meat distributor (Mar. 18, 2019) were used. Eight pounds of pork loins were ground (½″ then ¼″ plate) and weighed out in one pound portions. Plastic waterproof casings (2″ diameter) were clipped at one end. One pound of ground pork loin was placed in the casing and two pounds of brine (L-arginine concentration 7498 ppm) were added and the open end of the casing clipped. Based on laboratory test tube studies, meat samples would absorb 20-25% of the solution which equates to absorption of approximately 1500 ppm of L-arginine. Each plastic casing contained the same proportion of meat and brine as conducted during previous laboratory experiments (Table 12). A control was manufactured by substituting distilled water for the L-arginine brine.
After thermal processing the plastic casing test tubes were cut open and emptied into beakers, then separated into residue (meat particles) and supernatant (liquid) via paper filtration into 50 mL conical tubes for collection and subsequent analysis for residual nitrite (supernatant) and cured pigment formation/nitrosylation (meat residue).
Nitrosylation and residual nitrite analyses was performed under reduced light to avoid loss of pigmentation. L-arginine treated test tube pork sausage averaged 53.12 to 72.30 ppm of residual nitrite in the cooked meat pellet with percent nitrosylation ranging from 33 to 60 percent (Table 13). The brine was formulated to deliver 1500 ppm ingoing L-arginine at 25% absorption into the meat after two hours of immersion in the brine solution.

Compound: N=C(N)NCCC[C@H](N)C(=O)O [L-arginine]
- Residual Nitrite ([1]; 2 mM L-arginine, cooked pellet): 10.46 ppm and 10.46^a ppm
- Residual Nitrite ([1]; 2 mM L-arginine, cooked supernatant): 5.81 ppm and 5.81^ab ppm
- Residual Nitrite ([1]; 2 mM L-arginine, raw supernatant, stored 3 weeks at -30° C.): 4.53^b ppm
- Residual Nitrite ([1]; 4 mM L-arginine, cooked pellet): 9.35 ppm and 9.35^a ppm
- Residual Nitrite ([1]; 4 mM L-arginine, cooked supernatant): 8.79 ppm and 8.79^a ppm
- Residual Nitrite ([1]; 4 mM L-arginine, raw supernatant, stored 3 weeks at -30° C.): 8.00 ppm and 8.00^ab ppm
- Residual Nitrite ([1]; 8 mM L-arginine, cooked pellet): 11.22 ppm and 11.22^a ppm
- Residual Nitrite ([1]; 8 mM L-arginine, cooked supernatant): 5.85 ppm and 5.85^ab ppm
- Residual Nitrite ([1]; 8 mM L-arginine, raw supernatant, stored 3 weeks at -30° C.): 9.66 ppm and 9.66^ab ppm
- Residual Nitrite ([1]; 16 mM L-arginine, cooked pellet): 14.06 ppm and 14.06^a ppm
- Residual Nitrite ([1]; 16 mM L-arginine, cooked supernatant): 3.19 ppm and 3.19^ab ppm
- Residual Nitrite ([1]; 16 mM L-arginine, raw supernatant, stored 3 weeks at -30° C.): 9.23 ppm and 9.23^ab ppm
- Residual Nitrite ([1]; 32 mM L-arginine, cooked pellet): 15.69 ppm and 15.69^a ppm
- Residual Nitrite ([1]; 32 mM L-arginine, cooked supernatant): 7.86 ppm and 7.86^ab ppm
- Residual Nitrite ([1]; 32 mM L-arginine, raw supernatant, stored 3 weeks at -30° C.): 14.34 ppm and 14.34^a ppm
- Nitrosylation ([2]; 10% L-arginine brine): 33.71^ab %
- NO-Heme ([2]; 10% L-arginine brine): 7.63^bc ppm
- Total Heme ([2]; 10% L-arginine brine): 22.66^a ppm
- Nitrosylation ([2]; 15% L-arginine brine): 45.19^a %
- NO-Heme ([2]; 15% L-arginine brine): 8.70^b ppm
- Total Heme ([2]; 15% L-arginine brine): 19.26^a ppm
- Nitrosylation ([2]; 20% L-arginine brine): 36.99^ab %
- NO-Heme ([2]; 20% L-arginine brine): 8.31^b ppm
- Total Heme ([2]; 20% L-arginine brine): 22.66^a ppm
- Nitrosylation ([2]; 25% L-arginine brine): 60.13^a %
- NO-Heme ([2]; 25% L-arginine brine): 16.24^a ppm
- Total Heme ([2]; 25% L-arginine brine): 28.56^a ppm
- percent nitrosylation ([2]; range over brine additions 10-25%): 33 to 60%
